Reference: patent US4101649A, “Hydrosoluble agents having non specific immunodepressive properties” (Agence Nationale de Valorisation de la Recherche (ANVAR), priority 1975, dated 1978)
Where “and” joins values, the source holds several entries; their conditions need not be identical. Equal values may be shown once.

Columns and labels:
antiovalbumin antibodies = experiment: Rate of antiovalbumin antibodies in guinea pigs three weeks after injection of ovalbumin in FIA emulsion; assay type: in vivo, Hartley guinea pigs
Protocol: In the two series of tests the results of which are indicated hereafter, the influence of the active principles of the drugs according to the invention on the antiovalbumin antibodies rate was studied under the following conditions.
(§1) Female Hartley guinea pigs of 300-350 g. were given in the plantar pad of each of the two rear paws an emulsion composed of equal parts of incomplete Freund's adjuvant and a physiological solution containing ovalbumin (5 mg/guinea pig) and the preparations to be tested. The Freund's incomplete adjuvant (FIA), the Freund's complete adjuvant (FCA) marketed by the DIFCO Company and N-acetylmuramyl-L-alanyl-D-isoglutamine were used as controls.
The rate of antibodies with respect to ovalbumin was determined three weeks later after the injection in the conditions which were indicated in the French patent Nr 71 41610 of Nov. 19, 1971; it is expressed in μg of the antigen-antibody precipitate per ml of serum at the point of equivalence.

[1] = test system: delayed hypersensivity to ovalbumin; experiment: Delayed hypersensitivity to ovalbumin (cutaneous reaction) in guinea pigs; assay type: in vivo, Hartley guinea pigs; conditions: 4 weeks after injection, 48 hours after 50 μg ovalbumine/animal sub-cutaneous
Protocol: as §1
In a second series of tests, the delayed hypersensivity to ovalbumin which produces a cutaneous reaction was measured four weeks after the injection; it is expressed by the diameter in millimetres of the erythema (E), of the induration (I) or of the necrosis (N), 48 hours after the sub-cutaneous injection of 50 micrograms of ovalbumin.

[2] = Table I, first series, 25 μg/animal + FIA, guinea pigs, 3 weeks after injection
[3] = Table II, second series, 25 μg/animal
[4] = Table II, second series, 100 μg/animal

Question: CC(=O)N[C@H]1C(O)O[C@H](CO)[C@@H](O)[C@@H]1O[C@H](C)C(=O)N[C@@H](C)C(=O)N[C@@H](CCC(=O)O)C(N)=O (stereo partly drawn) [Mur-N-Ac-L-Ala-L-Glu-,α-NH2, 2-(2-acetamido-2-deoxy-3-D-glucopyranosyl)-D-propionyl-L-Ala-L-Glu-α-NH2] was tested. Which “Antiovalbumin antibodies rates compared with animals which received Freund's incomplete adjuvant only (in words)” value (antiovalbumin antibodies; Table I) did it give?
Answer: The value was “much lower”.

Question: What about the “Rate of antiovalbumin antibodies (individual animals)” value (shortened to “Rate … (individual animals)”) (antiovalbumin antibodies; [2]) of the same compound?
Answer: Its value is 1140 μg proteins / ml serum and 3400 μg proteins / ml serum and 4200 μg proteins / ml serum and 1700 μg proteins / ml serum and 800 μg proteins / ml serum and 700 μg proteins / ml serum and 2800 μg proteins / ml serum.

Question: What about the “Rate of antiovalbumin antibodies, mean values” (from here on “Rate … mean values”) (antiovalbumin antibodies; [2]) of the same compound?
Answer: Its value is 2104 μg proteins / ml serum.

Question: With CC(=O)NC1C(O)OC(CO)C(O)C1OC(C)C(=O)NC(C)C(=O)NC(CCC(=O)O)C(N)=O [Mur-N-Ac-D-Ala-D-Glu-,α-NH2, 2-(2-acetamido-2-deoxy-3-O-D-glucopyranose)-D-propionyl-D-alanyl-D-isoglutamine] as the compound, how does the “Delayed hypersensibility, cutaneous reaction (type letter not given)” value ([1]; 25 μg/animal) read?
Answer: Its value is 0 millimetres.

Question: What about the “Delayed hypersensibility, diameter of the induration (I)” value ([1]; 25 μg/animal) of the same compound?
Answer: Its value is 12 millimetres.

Question: And the “Delayed hypersensibility, cutaneous reaction (type letter not given)” value ([1]; 100 μg/animal)?
Answer: The value was 0 millimetres.

Question: And the “Delayed hypersensibility, diameter of the erythema (E)” value ([1]; 100 μg/animal)?
Answer: The value was 5 millimetres.

Question: What about the “Antiovalbumin antibodies rates compared with animals which received Freund's incomplete adjuvant only (in words)” value (antiovalbumin antibodies; Table I) of the same compound?
Answer: The value was “much lower”.

Question: What about the “Rate … (individual animals)” value (antiovalbumin antibodies; [2]) of the same compound?
Answer: Its value is 200 μg proteins / ml serum and 800 μg proteins / ml serum and 900 μg proteins / ml serum and 1300 μg proteins / ml serum and 1900 μg proteins / ml serum and 1500 μg proteins / ml serum.

Question: What about the “Rate … mean values” (antiovalbumin antibodies; [2]) of the same compound?
Answer: Its value is 1068 μg proteins / ml serum.

Question: And the “Rate … (individual animals)” value (antiovalbumin antibodies; [3])?
Answer: The value was 1720 μg proteins/ ml serum and 660 μg proteins/ ml serum and 3600 μg proteins/ ml serum and 1800 μg proteins/ ml serum and 1760 μg proteins/ ml serum.

Question: And the “Rate … mean values” (antiovalbumin antibodies; [3])?
Answer: Its value is 1890 μg proteins/ ml serum.

Question: What about the “Rate … (individual animals)” value (antiovalbumin antibodies; [4]) of the same compound?
Answer: The value was 950 μg proteins/ ml serum and 1000 μg proteins/ ml serum and 1200 μg proteins/ ml serum.

Question: What about the “Rate … mean values” (antiovalbumin antibodies; [4]) of the same compound?
Answer: The value was 1050 μg proteins/ ml serum.

Question: And the “Inhibition of the adjuvant action of Mur-N-Ac-L-Ala-D-Glu-α-NH2 when administered simultaneously (in words)” value (antiovalbumin antibodies; Table II, tests 5 and 6 versus test 3)?
Answer: The value was “strongly inhibits the adjuvant action”.
